Assay results published in patent publication US20230012368A1 (Hoffmann-La Roche Inc., priority 2018, published 2023).
Where a name gives a salt, the structure may show the parent alone.

Tested on: Acinetobacter baumannii ATCC 17978
Assay: Antimicrobial susceptibility testing: 90% growth inhibitory concentration (IC90) determination
Type: cell-based
Conditions: 90% growth inhibitory concentration; Acinetobacter baumannii ATCC17978; Iso-Sensitest broth, OD 600 nm over 16h; read-out: ATCC17978 IC90
Summary of the method: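 Compounds serially twofold diluted (e.g. 50 to 0.097 μM final) in Iso-Sensitest broth, inoculated at ~5×10^(5) CFU/ml, incubated at 35±2° C. OD600 read every 20 minutes over 16h. IC90 taken as concentration inhibiting 90% of growth during logarithmic phase.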

Compared with `CCc1cc(Nc2nccn3c(-c4ccc(Oc5ccc(OCCCN)cn5)c(F)c4F)cnc23)ccc1C(=O)NC` [Example 511, 4-[[3-[4-[[5-(3-aminopropoxy)-2-pyridyl]oxy]-2,3-difluoro-phenyl]imidazo[1,2-a]pyrazin-8-yl]amino]-2-ethyl-N-methyl-benzamide; formic acid], “4-((3-(4- (difluoromethoxy) phenyl)imidazo[1,2- a]pyrazin-8- yl)amino)-N-methyl- 2- (trifluoromethyl) benzamide [Example 53]” is 2-fold lower in IC90: 480 nM for the first, 240 nM for the second.

Same assay, conditions: Acinetobacter baumannii, ATCC17978, 16 h, 90% growth inhibitory concentration; Acinetobacter baumannii ATCC17978; Iso-Sensitest broth, OD 600 nm over 16h; read-out: ATCC17978 IC90

First: COc1ccc(-c2cnc3c(Nc4ccc(C(=O)N(C)C)c(C)c4)nccn23)c(F)c1F [Example 1, 4-((3-(2,3-difluoro-4-methoxyphenyl)imidazo[1,2-a]pyrazin-8-yl)amino)-N,N,2-trimethylbenzamide]
Second: COc1ccc(-c2cnc3c(Nc4ccc(C(=O)NCC5CCNC5)c(C)c4)nccn23)c(F)c1F (stereo not shown) [Example 57, 4-[[3-(2,3-difluoro-4-methoxy-phenyl)imidazo[1,2-a]pyrazin-8-yl]amino]-2-methyl-N-(pyrrolidin-3-ylmethyl)benzamide]
The IC90 of the first is 2.4-fold lower: 120 nM for the first, 290 nM for the second.

First: COc1ccc(-c2cnc3c(Nc4ccc(C(=O)N(C)CC5CCOC5)c(C)c4)nccn23)cc1F (stereo not shown) [Example 71, 4-((3-(3-fluoro-4-methoxyphenyl)imidazo [1,2-a]pyrazin-8-yl)amino)-N,2-dimethyl-N-((tetrahydrofuran-3-yl)methyl)benzamide]
Second: CNC(=O)c1ccc(Nc2nccn3c(-c4ccc(OC)c(Cl)c4)cnc23)cc1C [Example 27, 4-((3-(3-chloro-4-methoxyphenyl)imidazo [1,2-a]pyrazin-8-yl)amino)-N,2-dimethylbenzamide]
The IC90 of the first is 5.8-fold higher: 1100 nM for the first, 190 nM for the second.

Compared with `CCc1cc(Nc2nccn3c(-c4ccc(OCC#N)c(F)c4F)cnc23)ccc1C(=O)NCCNC(=O)[C@@H](N)CCCCN` [Example 143, 4-[[3-[4-(cyanomethoxy)-2,3-difluoro-phenyl]imidazo[1,2-a]pyrazin-8-yl]amino]-N-[2-[[(2S)-2,6-diaminohexanoyl]amino]ethyl]-2-ethyl-benzamide formate], `CCc1cc(Nc2nccn3c(-c4ccc(OC)c(F)c4F)cnc23)ccc1C(=O)NCCNC(=O)[C@@H](N)CCNC(=N)N` [Example 131, N-[2-[[(2S)-2-amino-4-guanidino-butanoyl]amino]ethyl]-4-[[3-(2,3-difluoro-4-methoxy-phenyl)imidazo[1,2-a]pyrazin-8-yl]amino]-2-ethyl-benzamide formate] is 1.8-fold lower in IC90: 160 nM for the first, 90 nM for the second.

First: CCc1cc(Nc2nccn3c(-c4ccc(OC)c(F)c4F)cnc23)ccc1C(=O)NCCCCC(=O)N1CCN[C@H](CO)C1 [Example 163, 4-[[3-(2,3-difluoro-4-methoxy-phenyl)imidazo[1,2-a]pyrazin-8-yl]amino]-2-ethyl-N-[5-[(3S)-3-(hydroxymethyl)piperazin-1-yl]-5-oxo-pentyl]benzamide]
Second: CCc1cc(Nc2nccn3c(-c4ccc(Oc5ccccn5)c(F)c4F)cnc23)ccc1C(=O)NCC(=O)N1CCN[C@H](CO)C1 [Example 474, 4-[[3-[2,3-difluoro-4-(2-pyridyloxy)phenyl]imidazo [1,2-a]pyrazin-8-yl]amino]-2-ethyl-N-[2-[(3S)-3-(hydroxymethyl)piperazin-1-yl]-2-oxo-ethyl]benzamide]
The IC90 of the first is 11-fold lower: 80 nM for the first, 910 nM for the second.

Compared with `CC[C@@]1(O)CN[C@H](C(=O)NCCNC(=O)c2ccc(Nc3nccn4c(-c5ccc(OCC#N)c(F)c5F)cnc34)cc2C)C1` [Example 366, (2S,4S)-N-[2-[[4-[[3-[4-(cyanomethoxy)-2,3-difluorophenyl]imidazo[1,2-a]pyrazin-8-yl]amino]-2-methylbenzoyl]amino]ethyl]-4-ethyl-4-hydroxypyrrolidine-2-carboxamide], `COc1ccc(-c2cnc3c(Nc4ccc(C(=O)NCCN5CCNCC5)c(C)c4)nccn23)c(F)c1F` [Example 377, 4-[[3-(2,3-difluoro-4-methoxyphenyl)imidazo[1,2-a]pyrazin-8-yl]amino]-2-methyl-N-(2-piperazin-1-ylethyl)benzamide] is 1.8-fold higher in IC90: 100 nM for the first, 180 nM for the second.

Going from `COc1ccc(-c2cnc3c(Nc4ccc(C(=O)N(C)CCN(C)C)c(C)c4)nccn23)cc1` [Example 18, N-(2-(dimethylamino)ethyl)-4-((3-(4-methoxyphenyl)imidazo [1,2-a]pyrazin-8-yl)amino)-N,2-dimethylbenzamide] to `COc1ccc(-c2cnc3c(Nc4ccc(C(=O)N(C)CCO)c(C)c4)nccn23)cc1` [Example 19, N-(2-hydroxyethyl)-4-((3-(4-methoxyphenyl)imidazo [1,2-a]pyrazin-8-yl)amino)-N,2-dimethylbenzamide], the IC90 falls from 2200 nM to 690 nM (3.2-fold).

First: Cc1cc(Nc2nccn3c(-c4ccc(Cl)c(F)c4F)cnc23)ccc1C(=O)NCCC1CCN(C)CC1 [Example 244, 4-[[3-(4-chloro-2,3-difluorophenyl)imidazo[1,2-a]pyrazin-8-yl]amino]-2-methyl-N-[2-(1-methylpiperidin-4-yl)ethyl]benzamide]
Second: CCc1cc(Nc2nccn3c(-c4ccc(OC)c(F)c4F)cnc23)ccc1C(=O)NCCC1CCNCC1 [Example 388, 4-[[3-(2,3-difluoro-4-methoxyphenyl)imidazo[1,2-a]pyrazin-8-yl]amino]-2-ethyl-N-(2-piperidin-4-ylethyl)benzamide; hydrochlo-ride]
The IC90 of the first is 2.2-fold higher: 440 nM for the first, 200 nM for the second.

First: Cc1cc(Nc2nccn3c(-c4ccc(OC(F)F)cc4)cnc23)ccc1C(=O)NCCCC[C@H](N)C(=O)O [Example 271, (2S)-2-amino-6-[[4-[[3-[4-(difluoromethoxy)phenyl]im-idazo[1,2-a]pyrazin-8-yl]amino]-2-methylbenzoyl]amino]hexa-noic acid]
Second: Cc1cc(Nc2nccn3c(-c4ccc(OC(F)F)cc4)cnc23)ccc1C(=O)NCCCCCCN [Example 21, N-(6-aminohexyl)-4-((3-(4-(difluoromethoxy)phenyl)imidazo[1,2-a]pyrazin-8-yl)amino)-2-methylbenzamide hydrochloride]
The IC90 of the first is 78-fold higher: 9300 nM for the first, 120 nM for the second.

`COc1ccc(-c2cnc3c(Nc4ccc(C(=O)NCCN5CCNCC5)c(Cl)c4)nccn23)c(F)c1F` [Example 59, 2-chloro-4-[[3-(2,3-difluoro-4-methoxy-phenyl)imidazo[1,2-a]pyrazin-8-yl]amino]-N-(2-piperazin-1-ylethyl)benzamide] and `N#CCOc1ccc(-c2cnc3c(Nc4ccc(C(=O)NCC5CCNCC5)c(Cl)c4)nccn23)c(F)c1F` [Example 79, 2-chloro-4-[[3-[4-(cyanomethoxy)-2,3-difluoro-phenyl]imidazo[1,2-a]pyrazin-8-yl]amino]-N-(4-piperidylmethyl) benzamide] are within 1.5-fold of each other in IC90: 130 nM for the first, 90 nM for the second.

`CCc1cc(Nc2nccn3c(-c4ccc(Oc5cc(OC)ncn5)c(F)c4F)cnc23)ccc1C(=O)N[C@@H](C)CN` [Example 463, (S)-N-(1-aminopropan-2-yl)-4-((3-(2,3-difluoro-4-((6-methoxypyrimidin-4-yl)oxy)phenyl)imidazo[1,2-a]pyrazin-8-yl)amino)-2-ethylbenzamide] and `CCc1cc(Nc2nccn3c(-c4ccc(Oc5ccccn5)c(F)c4F)cnc23)ccc1C(=O)N[C@@H](C)CNC(=O)[C@@H](N)CCNC(=N)N` [Example 456, N-[(1S)-2-[[(2S)-2-amino-4-guanidino-butanoyl]amino]-1-methyl-ethyl]-4-[[3-[2,3-difluoro-4-(2-pyridyloxy)phenyl]imidazo [1,2-a]pyrazin-8-yl]amino]-2-ethyl-benzamide; formic acid] are within 1.5-fold of each other in IC90: 840 nM for the first, 710 nM for the second.

Compared with `COc1ccc(-c2cnc3c(Nc4cc(C)c(C(=O)NCCN)c(F)c4)nccn23)c(F)c1F` [Example 467, N-(2-aminoethyl)-4-((3-(2,3-difluoro-4-methoxyphenyl)imidazo[1,2-a]pyrazin-8-yl)amino)-2-fluoro-6-methylbenzamide], `CCc1cc(Nc2nccn3c(-c4ccc(OC)c(F)c4F)cnc23)ccc1C(=O)NC[C@@H]1CCNC1` [Example 529, (R)-4-((3-(2,3-difluoro-4-methoxyphenyl)imidazo[1,2-a]pyrazin-8-yl)amino)-2-ethyl-N-(pyrrolidin-3-ylmethyl)benzamide hydrochloride] is 5.7-fold lower in IC90: 630 nM for the first, 110 nM for the second.

`CCc1cc(Nc2nccn3c(-c4ccc(Oc5ccc(F)cn5)c(F)c4F)cnc23)ccc1C(=O)NCCNC(=O)[C@H](N)CCCNC(=N)N` [Example 424, N-[2-[[(2R)-2-amino-5-guanidino-pentanoyl]amino]ethyl]-4-[[3-[2,3-difluoro-4-[(5-fluoro-2-pyridyl)oxy]phenyl]imidazo [1,2-a]pyrazin-8-yl]amino]-2-ethyl-benzamide; formic acid] and `CCc1cc(Nc2nccn3c(-c4ccc(Cl)cc4Cl)cnc23)ccc1C(=O)NCCNC(=O)[C@@H](N)CCCNC(=N)N` [Example 346, N-[2-[[(2S)-2-amino-5-carbamimidamidopentanoyl]amino]ethyl]-4-[[3-(2,4-dichlorophenyl)imidazo[1,2-a]pyrazin-8-yl]amino]-2-ethylbenzamide;hydrochloride] are within 1.5-fold of each other in IC90: 900 nM for the first, 980 nM for the second.

First: CCc1cc(Nc2nccn3c(-c4ccc(OC)c(F)c4F)cnc23)ccc1C(=O)NCC1CCN(C(=O)C2CCNCC2)CC1 [Example 546, 4-((3-(2,3-difluoro-4-methoxyphenyl)imidazo[1,2-a]pyrazin-8-yl)amino)-2-ethyl-N-((1-(piperidine-4-carbonyl)piperidin-4-yl)methyl)benzamide 2,2,2-trifluoroacetate]
Second: Cc1cc(Nc2nccn3c(-c4ccc(OC(F)F)cc4)cnc23)ccc1C(=O)N(C)CCN1CCNCC1 [Example 45, 4-[[3-[4-(difluoromethoxy)phenyl]imidazo[1,2-a]pyrazin-8-yl]amino]-N,2-dimethyl-N-(2-piperazin-1-ylethyl)benzamide]
The IC90 of the first is 5-fold lower: 70 nM for the first, 350 nM for the second.
